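Growth conditions: 96-well plates. Treatment: test compound, 48 hours, 5 concentrations. Analysis: linear interpolation between bracketing concentrations; unreached endpoints set to highest concentration. The concentration for 50% growth inhibition is given as GI50. TGI is the concentration that stops growth completely.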
Legend:
Assay in all cases: NCI-60 cell line screen, 48 h
COLO 205 colon = tested on: COLO 205 colon
KM12 colon = tested on: KM12 colon
HT29 colon = tested on: HT29 colon
SF-295 CNS = tested on: SF-295 CNS
RPMI-8226 leukemia = tested on: RPMI-8226 leukemia
SF-268 CNS = tested on: SF-268 CNS
CCRF-CEM leukemia = tested on: CCRF-CEM leukemia
CAKI-1 renal = tested on: CAKI-1 renal
NCI-H522 lung = tested on: NCI-H522 lung
UO-31 renal = tested on: UO-31 renal
HOP-62 NSCLC = tested on: HOP-62 NSCLC
SNB-75 CNS = tested on: SNB-75 CNS
OVCAR-8 ovarian = tested on: OVCAR-8 ovarian
MCF7 breast = tested on: MCF7 breast
OVCAR-4 ovarian = tested on: OVCAR-4 ovarian
MDA-MB-231 breast = tested on: MDA-MB-231 breast
SW-620 colon = tested on: SW-620 colon
SN12C renal = tested on: SN12C renal
HOP-92 NSCLC = tested on: HOP-92 NSCLC
M14 melanoma = tested on: M14 melanoma
SNB-19 CNS = tested on: SNB-19 CNS
OVCAR-5 ovarian = tested on: OVCAR-5 ovarian
NCI-H460 lung = tested on: NCI-H460 lung
UACC-257 melanoma = tested on: UACC-257 melanoma
TK-10 renal = tested on: TK-10 renal
NCI-H226 lung = tested on: NCI-H226 lung
SR leukemia = tested on: SR leukemia
SK-MEL-2 melanoma = tested on: SK-MEL-2 melanoma
DU-145 prostate = tested on: DU-145 prostate
EKVX NSCLC = tested on: EKVX NSCLC
IGROV1 ovarian = tested on: IGROV1 ovarian
HS 578T breast = tested on: HS 578T breast
MOLT-4 leukemia = tested on: MOLT-4 leukemia
NCI-H23 lung = tested on: NCI-H23 lung
A549 NSCLC = tested on: A549 NSCLC
ACHN renal = tested on: ACHN renal
SK-MEL-28 melanoma = tested on: SK-MEL-28 melanoma
MDA-N = tested on: MDA-N
PC-3 prostate = tested on: PC-3 prostate
OVCAR-3 ovarian = tested on: OVCAR-3 ovarian
UACC-62 melanoma = tested on: UACC-62 melanoma
SF-539 CNS = tested on: SF-539 CNS
HL-60(TB) leukemia = tested on: HL-60(TB) leukemia
MDA-MB-435 = tested on: MDA-MB-435
U251 CNS = tested on: U251 CNS
HCT-15 colon = tested on: HCT-15 colon
SK-MEL-5 melanoma = tested on: SK-MEL-5 melanoma
T-47D breast = tested on: T-47D breast
A498 renal = tested on: A498 renal
NCI/ADR-RES ovarian = tested on: NCI/ADR-RES ovarian
SK-OV-3 ovarian = tested on: SK-OV-3 ovarian
HCT-116 colon = tested on: HCT-116 colon
MALME-3M melanoma = tested on: MALME-3M melanoma
K-562 leukemia = tested on: K-562 leukemia
LOX IMVI melanoma = tested on: LOX IMVI melanoma
786-0 renal = tested on: 786-0 renal
RXF 393 renal = tested on: RXF 393 renal
HCC-2998 colon = tested on: HCC-2998 colon
BT-549 breast = tested on: BT-549 breast

## C=CC1OC(CCCOC(=O)C(C)(C)C)O[C@@H]1CC (some centres undefined)
COLO 205 colon
  TGI: > 100 µM
KM12 colon
  TGI: > 100 µM
HT29 colon
  TGI: > 100 µM
SF-295 CNS
  TGI: > 100 µM
RPMI-8226 leukemia
  TGI: > 100 µM
SF-268 CNS
  TGI: > 100 µM
CCRF-CEM leukemia
  TGI: > 100 µM
CAKI-1 renal
  TGI: > 100 µM
NCI-H522 lung
  TGI: > 100 µM
UO-31 renal
  TGI: > 100 µM
HOP-62 NSCLC
  TGI: > 100 µM
SNB-75 CNS
  TGI: > 100 µM
OVCAR-8 ovarian
  TGI: > 100 µM
MCF7 breast
  TGI: > 100 µM
OVCAR-4 ovarian
  TGI: > 100 µM
MDA-MB-231 breast
  TGI: > 100 µM
SW-620 colon
  TGI: > 100 µM
SN12C renal
  TGI: > 100 µM
HOP-92 NSCLC
  TGI: > 100 µM
M14 melanoma
  TGI: > 100 µM
SNB-19 CNS
  TGI: > 100 µM
OVCAR-5 ovarian
  TGI: > 100 µM
NCI-H460 lung
  TGI: > 100 µM
UACC-257 melanoma
  TGI: > 100 µM
TK-10 renal
  TGI: > 100 µM
NCI-H226 lung
  TGI: > 100 µM
SR leukemia
  TGI: > 100 µM
SK-MEL-2 melanoma
  TGI: > 100 µM
DU-145 prostate
  TGI: > 100 µM
EKVX NSCLC
  TGI: > 100 µM
IGROV1 ovarian
  TGI: > 100 µM
HS 578T breast
  TGI: > 100 µM
MOLT-4 leukemia
  TGI: > 100 µM
NCI-H23 lung
  TGI: > 100 µM
A549 NSCLC
  TGI: > 100 µM
ACHN renal
  TGI: > 100 µM
SK-MEL-28 melanoma
  TGI: > 100 µM
MDA-N
  TGI: > 100 µM
PC-3 prostate
  TGI: > 100 µM
OVCAR-3 ovarian
  TGI: > 100 µM
UACC-62 melanoma
  TGI: > 100 µM
SF-539 CNS
  TGI: > 100 µM
HL-60(TB) leukemia
  TGI: > 100 µM
MDA-MB-435
  TGI: > 100 µM
U251 CNS
  TGI: > 100 µM
HCT-15 colon
  TGI: > 100 µM
SK-MEL-5 melanoma
  TGI: > 100 µM
T-47D breast
  TGI: > 100 µM
A498 renal
  TGI: > 100 µM
NCI/ADR-RES ovarian
  TGI: > 100 µM
SK-OV-3 ovarian
  TGI: > 100 µM

## Nc1ccn([C@H]2C[C@@H](O)[C@@H](CO)S2)c(=O)n1
COLO 205 colon
  GI50: > 89.8 µM
  TGI: > 100 µM
HCT-116 colon
  GI50: 14.1 µM
  TGI: > 100 µM
KM12 colon
  GI50: > 100 µM
  TGI: > 100 µM
HT29 colon
  GI50: > 100 µM
  TGI: > 100 µM
SF-295 CNS
  GI50: > 100 µM
  TGI: > 100 µM
RPMI-8226 leukemia
  GI50: > 100 µM
  TGI: > 100 µM
SF-268 CNS
  GI50: > 100 µM
  TGI: > 100 µM
CAKI-1 renal
  GI50: 8.4 µM
  TGI: > 100 µM
NCI-H522 lung
  TGI: > 100 µM
UO-31 renal
  GI50: 23.6 µM
  TGI: > 100 µM
HOP-62 NSCLC
  GI50: > 32 µM
  TGI: > 100 µM
SNB-75 CNS
  GI50: > 44 µM
  TGI: > 100 µM
MALME-3M melanoma
  GI50: > 100 µM
  TGI: > 100 µM
OVCAR-8 ovarian
  GI50: 11.2 µM
  TGI: > 100 µM
MCF7 breast
  GI50: > 100 µM
  TGI: > 100 µM
OVCAR-4 ovarian
  GI50: > 100 µM
  TGI: > 100 µM
MDA-MB-231 breast
  GI50: > 100 µM
  TGI: > 100 µM
SW-620 colon
  GI50: > 70.1 µM
  TGI: > 100 µM
K-562 leukemia
  GI50: > 100 µM
  TGI: > 100 µM
SN12C renal
  GI50: > 44.7 µM
  TGI: > 100 µM
HOP-92 NSCLC
  GI50: > 100 µM
  TGI: > 100 µM
M14 melanoma
  GI50: > 100 µM
  TGI: > 100 µM
LOX IMVI melanoma
  GI50: > 100 µM
  TGI: > 100 µM
SNB-19 CNS
  GI50: > 100 µM
  TGI: > 100 µM
OVCAR-5 ovarian
  GI50: > 100 µM
  TGI: > 100 µM
786-0 renal
  GI50: > 100 µM
  TGI: > 100 µM
NCI-H460 lung
  GI50: 34.9 µM
  TGI: > 100 µM
RXF 393 renal
  GI50: > 39.1 µM
  TGI: > 100 µM
UACC-257 melanoma
  GI50: > 100 µM
  TGI: > 100 µM
TK-10 renal
  GI50: > 100 µM
  TGI: > 100 µM
NCI-H226 lung
  GI50: > 100 µM
  TGI: > 100 µM
SR leukemia
  GI50: > 100 µM
  TGI: > 100 µM
SK-MEL-2 melanoma
  GI50: > 100 µM
  TGI: > 100 µM
DU-145 prostate
  GI50: > 100 µM
  TGI: > 100 µM
EKVX NSCLC
  GI50: > 100 µM
  TGI: > 100 µM
IGROV1 ovarian
  GI50: > 100 µM
  TGI: > 100 µM
HS 578T breast
  GI50: > 100 µM
  TGI: > 100 µM
MOLT-4 leukemia
  GI50: > 100 µM
  TGI: > 100 µM
NCI-H23 lung
  GI50: > 100 µM
  TGI: > 100 µM
A549 NSCLC
  GI50: > 100 µM
  TGI: > 100 µM
ACHN renal
  GI50: 8.65 µM
  TGI: > 100 µM
HCC-2998 colon
  GI50: > 100 µM
  TGI: > 100 µM
SK-MEL-28 melanoma
  GI50: > 100 µM
  TGI: > 100 µM
BT-549 breast
  GI50: > 100 µM
  TGI: > 100 µM
PC-3 prostate
  GI50: > 100 µM
  TGI: > 100 µM
OVCAR-3 ovarian
  GI50: > 100 µM
  TGI: > 100 µM
UACC-62 melanoma
  GI50: > 100 µM
  TGI: > 100 µM
SF-539 CNS
  GI50: > 100 µM
  TGI: > 100 µM
HL-60(TB) leukemia
  GI50: 14.5 µM
  TGI: > 100 µM
MDA-MB-435
  GI50: 16.9 µM
  TGI: > 100 µM
U251 CNS
  GI50: > 100 µM
  TGI: > 100 µM
HCT-15 colon
  GI50: 11.8 µM
  TGI: > 100 µM
SK-MEL-5 melanoma
  GI50: > 42.3 µM
  TGI: > 100 µM
T-47D breast
  GI50: > 100 µM
  TGI: > 100 µM
A498 renal
  GI50: > 100 µM
  TGI: > 100 µM
NCI/ADR-RES ovarian
  GI50: 19.6 µM
  TGI: > 100 µM
SK-OV-3 ovarian
  GI50: > 100 µM
  TGI: > 100 µM

Source: PubChem BioAssay (NCI)
